# Read-outs that look alike come from different tables or passages of the source.
# Experiments:
# blood neutrophils = experiment: Peripheral blood neutrophil counts and NLR on treatment; assay type: in vivo, human
# Description: Secondary endpoints were:(i) the rate of objective response, with objective response defined as confirmed soft tissue objective response by Response Evaluation Criteria in Solid Tumors v.1.1 in those with measurable disease, and/or PSA decline ≥50% confirmed 4 weeks or later, and/or CTC count conversion from ≥5 per 7.5 ml of blood at baseline to <5 per 7.5 ml of blood at nadir; (ii) pharmacokinetic parameters, including maximum concentration, area under the concentration–time curve; and (iii) pharmacodynamic changes including identifying patients whose blood NLR, neutrophil, and intratumour myeloid cell density decrease. Exploratory endpoints included blood cytokine levels and evaluation of tumour molecular profile on response.
# The association between myeloid cell densities and NLR was evaluated in two cohorts (Supplementary Table 1). Cohort 1 consisted of 48 mCRPC biopsies from patients treated at ICR/RMH, Oncology Institute of Southern Switzerland and Belfast City Hospital between 2012 and 2021. All patients provided informed consent, and enrolled onto institutional protocols approved by the local RECs (REC reference: 04/Q0801/60, 11/LO/2019). The validation cohort consisted of 57 mCRPC biopsies from patients treated at ICR/RMH between 2012 and 2016 under institutional protocols approved by the local REC (REC references: 04/Q0801/60, 2017-01002 CE TI 3237). […]
# [1] = tested on: CD11b+HLA-DRloCD15+CD14− myeloid cells; experiment: Hyperplex IF of paired pre- and on-treatment mCRPC biopsies: intratumour immune cell density; assay type: in vivo, human
# Description: Specific pharmacokinetic collection time points are listed in the study protocol. Pharmacokinetic parameters were calculated using non-compartmental analysis (Phoenix v.8.1, Certara). Fresh tumour needle core biopsies from matched disease sites (lymph node, bone and soft tissue) were collected at baseline (within 1 week of treatment commencement) and approximately 2 weeks after starting AZD5069 in patients when this was deemed safe and feasible. Tumour biopsies were obtained from 18 patients under computerized tomography or ultrasound guidance by an experienced interventional radiologist (N.T.). […] One patient had only a baseline tumour biopsy. Two patients underwent on-treatment biopsies after 4 weeks. Immediately after biopsy, tumour samples were immersed in 10% neutral-buffered formalin for 24 hours. Samples were processed through paraffin wax for histologic examination. […] Baseline FFPE samples were analysed by IHC, and pre- and post-treatment FFPE biopsies were analysed by IF and targeted RNA profiling using HTG EdgeSeq. […]
# The hyperplex IF protocol template was generated using the COMET Control Software (v.0.70.0.1, Lunaphore Technologies), and reagents were loaded onto the device to carry out the sequential IF (seqIF) protocol. […] Nuclear signal was detected with DAPI (No. 62248, dilution 1:1,000, Thermo Fisher Scientific) by dynamic incubation of 2 min. […]
# plasma protein = tested on: plasma protein; parameters: method as in AZD5069 Investigator Brochure (IB); conditions: ref AZD5069 Investigator Brochure (IB); cited from earlier work
# [2] = parameters: method as in AZD5069 Investigator Brochure (IB); conditions: human mass balance study NCT01332903; ref AZD5069 Investigator Brochure (IB); cited from earlier work
# [3] = tested on: patients with bronchiectasis; conditions: cited from earlier work
# [4] = tested on: patients with chronic obstructive pulmonary disease (COPD); conditions: cited from earlier work
# [5] = bronchiectasis study NCT01255592, on AZD5069, ref AZD5069 Investigator Brochure (IB)
compound,measurement,setting,value
C[C@@H](Oc1cc(NS(=O)(=O)N2CCC2)nc(SCc2cccc(F)c2F)n1)[C@@H](O)CO [AZD5069],effect on blood neutrophil counts and NLRs,blood neutrophils; 40 mg BD to 320 mg BD,decreased blood neutrophil counts and NLRs in a dose-dependent manner
same,on-target reduction in blood neutrophil counts,blood neutrophils; AZD5069 >40 mg BD,at least 30%
same,density of other immune cells in CRPC biopsies,[1],did not significantly alter the density of other immune cells
same,density of CD11b+HLA-DRloCD15+CD14− myeloid cells in CRPC biopsies,"[1]; most patients treated with AZD5069 >40 mg BD, approximately 2 weeks after starting treatment",reduced the density
same,bound to plasma protein,plasma protein,> 96%
same,phase II glucose conjugate metabolite in urine,[2],< 5.3 % of dose
same,mean reduction in blood neutrophils,"[3]; bronchiectasis study NCT01255592, 80 mg BD, ref AZD5069 Investigator Brochure (IB)",approximately 16%
same,reduction in sputum neutrophils compared with placebo,"[3]; bronchiectasis study NCT01255592, after 4 weeks’ treatment, ref AZD5069 Investigator Brochure (IB)",69%
same,patients reporting adverse events (AEs),[3]; [5],23 of 26
same,patients who withdrew because of AEs,[3]; [5],5
same,infections reported,[3]; in vivo,34.6%
same,adverse events (AEs),"[4]; 50mg AZD5069, ref (18)",33%
same,"treatment discontinuation for decrease in neutrophils (<1.0 × 10^9/L in two blood samples, 24 hours apart)","[4]; 50mg AZD5069, ref (18)",10%
same,adverse events (AEs),"[4]; 80mg AZD5069, ref (18)",21%
same,"treatment discontinuation for decrease in neutrophils (<1.0 × 10^9/L in two blood samples, 24 hours apart)","[4]; 80mg AZD5069, ref (18)",4%
same,AEs leading to discontinuation of treatment,"[4]; AZD5069 50 mg group, ref (18)",17%
same,patients discontinued from the study due to decreased neutrophil count,"[4]; AZD5069 50 mg group, ref (18)",3
same,AEs leading to discontinuation of treatment,"[4]; AZD5069 80 mg group, ref (18)",7%
same,average decrease of blood neutrophil counts from baseline,"[4]; AZD5069 80 mg group, ref (18)",13-36%
same,patients discontinued from the study due to decreased neutrophil count,"[4]; AZD5069 80 mg group, ref (18)",1

# Reference: paper PMC10686834, “Targeting myeloid chemotaxis to reverse prostate cancer therapy resistance” (Nature, 2023)
